# Laboratory results reported in US20250333418A1, “PURINE COMPOUNDS, COMPOSITIONS COMPRISING THEM AND USES THEREOF” (Novo Nordisk A/S, priority 2022, published 2025).
# Tests used:
# human CB1 receptor [1] = molecular target: T1, human CB1 receptor (Homo sapiens, UniProt P21554); experiment: bioSensAll GAPL-Gi2 BRET biosensor assay in HEK293 cells transfected with hCB1; test compound added before EC75-80 of agonist CP55,940 (0.1 nM); type: cell-based; details: vs CP55,940 0.1 nM (EC75-80), read-out: CB1 wt Gi2 IC50
# T1 construct: expressed in transfected cells; host or cells: HEK293
# Experimental: (§1) Using polyethylenimine (PEI) transfection agent, HEK293 cells were transfected in suspension with the human CB1 receptor and one of the following bioSensAll® assays: GAPL-Gi2, or β-arrestin plasma membrane (PM) translocation biosensor (+GRK2). Cells were directly seeded in 96-well plates immediately following transfection.
# (§2) Cells were incubated with coelenterazine (luciferase substrate) and different test compounds prior to the measurement of BRET signals.
# (§3) Used in this project are i) Gα plasma membrane (GAPL) biosensors and the ii) β-arrestin plasma membrane translocation biosensor.
# i) GAPL sensors are used to monitor the activation of heterotrimeric G proteins at the plasma membrane upon receptor stimulation. Specifically, these multimolecular BRET sensors detect the plasma membrane recruitment of proteins that interact with active Gα subunits in a G protein family-selective manner. G protein activation following receptor stimulation generally leads to an increase in the BRET signal.
# (§4) HEK293 cells were maintained in Dulbecco's Modified Eagle Medium (DMEM) (Wisent; cat #319-030-CL: without sodium pyruvate, with 4.5 g/L glucose, without L-glutamine) supplemented with 1% penicillin-streptomycin (Wisent; cat #450-201-EL) and 2 or 10% fetal bovine serum (Wisent cat #090150).
# (§5) HEK293 cells were co-transfected with hCB1 and one of the above-listed bioSensAll® assays. For each transfection condition: • the total amount of transfected DNA was kept constant at 1 μg per mL of cell culture to be transfected; whenever necessary, salmon sperm DNA (Invitrogen, cat #15632011) was used as ‘carrier’ DNA to supplement plasmid DNA (i.e., biosensor and receptor); • the PEI (polyethylenimine 25 kDa linear, PolyScience, cat #23966) to DNA ratio (ug:ug) was fixed at 3:1.
# (§6) Transfections were carried out as follows: • DNA and PEI were first diluted separately in 150 mM NaCl. The volume of the diluent in each tube corresponds to 5% of the cell culture volume to be transfected. • Once DNA and PEI were diluted, the PEI-containing solution was added to the DNA solution and the DNA/PEI mixture immediately vortexed for 5 seconds. • The DNA/PEI mixture was incubated for at least 20 minutes at room temperature to allow for the formation of DNA/PEI complexes. • During the incubation, HEK293 cells were detached, counted and re-suspended in culture medium (composition specified above). • At the end of the incubation period, the DNA/PEI mixture was added to the cells. • Cells were finally distributed in 96-well plates (White Opaque 96-well/Microplates, Greiner, cat #655083 or CulturPlate-96, White Opaque 96-well Microplate, PerkinElmer, cat #6005688) at a density of 30,000 cells per well.
# (§7) At 48 hours post-transfection: • Using 450-Select TS Biotek plate washer, culture medium was aspirated and replaced with 100 μL of Hank's Balanced Salt Solution buffer (HBSS) (Wisent, cat #319-067CL: without red phenol; with sodium bicarbonate, with calcium and magnesium, with HEPES) per well. • Plates were then incubated (equilibrated) at 37° C., 5% CO2 for 60 minutes. • Increasing doses of test compounds were then added to each well using the HP D300e digital dispenser (Tecan). All compounds were assayed at the following 12 concentrations (in nM) with each biosensor: 0.000, 0.013, 0.040, 0.120, 0.320, 0.960, 2.80, 8.00, 24.0, 70.0, 205 and 600. • Three to 5 minutes later, an assay-specific effective concentration (EC)75-80 of agonist CP55,940 (i.e., 0.1 nM and 100 nM for G[…]i2-GAPL or […]Arrestin2 (+GRK2) assay, respectively) was added to wells previously injected with test compound (i.e., previous step 3). […]
# human CB1 receptor [2] = molecular target: T1, human CB1 receptor; experiment: bioSensAll β-arrestin2 plasma membrane translocation (+GRK2) BRET biosensor assay in HEK293 cells transfected with hCB1; test compound added before EC75-80 of agonist CP55,940 (100 nM); type: cell-based; details: βArrestin2 (+GRK2) BRET biosensor, vs CP55,940 100 nM (EC75-80), read-out: CB1 wt βarr2 IC50
# Experimental: as §1, §2, §3
# ii) The multimolecular β-arrestin membrane recruitment biosensors allow for real-time spatio-temporal monitoring of β-arrestin 1 and β-arrestin 2 following GPCR activation. Specifically, these β-arrestin sensors were designed to detect the recruitment of proteins to the plasma membrane (β-arrestin PM) with localization to compartment resulting in an increased BRET signal.
# as §4, §5, §6, §7
# T1 sequence (P21554 whole entry): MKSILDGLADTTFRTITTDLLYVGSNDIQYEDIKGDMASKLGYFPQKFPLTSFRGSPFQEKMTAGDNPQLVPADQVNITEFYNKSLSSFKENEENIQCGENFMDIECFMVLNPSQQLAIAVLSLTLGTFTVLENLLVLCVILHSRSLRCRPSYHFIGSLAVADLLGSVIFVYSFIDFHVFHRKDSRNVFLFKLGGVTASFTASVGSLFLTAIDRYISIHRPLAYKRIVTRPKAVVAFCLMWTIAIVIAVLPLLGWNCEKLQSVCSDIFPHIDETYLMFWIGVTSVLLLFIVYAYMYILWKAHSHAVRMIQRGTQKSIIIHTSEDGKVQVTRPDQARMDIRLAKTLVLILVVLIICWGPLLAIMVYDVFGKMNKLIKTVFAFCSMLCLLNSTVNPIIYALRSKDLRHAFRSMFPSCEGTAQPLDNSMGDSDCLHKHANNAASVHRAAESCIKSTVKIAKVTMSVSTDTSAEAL
IC50 (human CB1 receptor [1]),IC50 (human CB1 receptor [2]),Structure (SMILES)
1.42 nM,4.98 nM,"FC(F)(F)C1CCN(c2nc(OC3CCCOC3)nc3c2nc(-c2ccccc2Cl)n3-c2ccc(Cl)cc2)CC1 (stereo not drawn) [Compound 33, 8-(2-chlorophenyl)-9-(4-chlorophenyl)-2-tetrahydropyran-3-yloxy-6-[4-(trifluoromethyl)-1-piperidyl]purine]"
6.62 nM,17.6 nM,"CC(=O)NC(=N)Nc1nc(N2CCC(C(F)(F)F)CC2)c2nc(-c3ccccc3Cl)n(-c3ccc(Cl)cc3)c2n1 [Compound 34, N—[N-[8-(2-chlorophenyl)-9-(4-chlorophenyl)-6-[4-(trifluoromethyl)-1-piperidyl]purin-2-yl]carbamimidoyl]acetamide]"
0.687 nM,3.3 nM,"OC[C@@H]1CCCN1c1nc(N2CCC(C(F)(F)F)CC2)c2nc(-c3ccccc3Cl)n(-c3ccc(Cl)cc3)c2n1 [Compound 35, [(2S)-1-[8-(2-chlorophenyl)-9-(4-chlorophenyl)-6-[4-(trifluoromethyl)-1-piperidyl]purin-2-yl]pyrrolidin-2-yl]methanol]"
0.686 nM,1.52 nM,"CC1(C(N)=O)CCN(c2nc(N3CCC[C@H]3CO)nc3c2nc(-c2ccc(C#N)cc2)n3-c2ccc(Cl)cc2)CC1 [Compound 36, 1-[9-(4-chlorophenyl)-8-(4-cyanophenyl)-2-[(2S)-2-(hydroxymethyl)pyrrolidin-1-yl]purin-6-yl]-4-methyl-piperidine-4-carboxamide]"
7.39 nM,60.5 nM,"CC1(C(N)=O)CCN(c2nc(N3CCC[C@H]3CO)nc3c2nc(-c2cccc(C#N)c2)n3-c2ccc(Cl)cc2)CC1 [Compound 37, 1-[9-(4-chlorophenyl)-8-(3-cyanophenyl)-2-[(2S)-2-(hydroxymethyl)pyrrolidin-1-yl]purin-6-yl]-4-methyl-piperidine-4-carboxamide]"
1.67 nM,6.48 nM,"CN(CC(C)(C)O)c1nc(N2CCC(C(F)(F)F)CC2)c2nc(-c3ccccc3Cl)n(-c3ccc(Cl)cc3)c2n1 [Compound 38, 1-[[8-(2-chlorophenyl)-9-(4-chlorophenyl)-6-[4-(trifluoromethyl)-1-piperidyl]purin-2-yl]-methyl-amino]-2-methyl-propan-2-ol]"
0.971 nM,15.3 nM,"CN(CC(C)(C)O)c1nc(N2CCC(C)(C(N)=O)CC2)c2nc(-c3ccccc3Cl)n(-c3ccc(Cl)cc3)c2n1 [Compound 40, 1-[8-(2-chlorophenyl)-9-(4-chlorophenyl)-2-[(2-hydroxy-2-methyl-propyl)-methyl-amino]purin-6-yl]-4-methyl-piperidine-4-carboxamide]"
1.65 nM,7.33 nM,"CN(CC1(O)CC1)c1nc(N2CCC(C)(C(N)=O)CC2)c2nc(-c3ccccc3Cl)n(-c3ccc(Cl)cc3)c2n1 [Compound 41, 1-[8-(2-chlorophenyl)-9-(4-chlorophenyl)-2-[(1-hydroxycyclopropyl)methyl-methyl-amino]purin-6-yl]-4-methyl-piperidine-4-carboxamide]"
0.695 nM,2.39 nM,"COCCN(C)c1nc(N2CCC(C)(C(N)=O)CC2)c2nc(-c3ccccc3Cl)n(-c3ccc(Cl)cc3)c2n1 [Compound 42, 1-[8-(2-chlorophenyl)-9-(4-chlorophenyl)-2-[2-methoxyethyl(methyl)amino]purin-6-yl]-4-methyl-piperidine-4-carboxamide]"
1.37 nM,5.27 nM,"CC1(C(N)=O)CCN(c2nc(-n3ccnc3CO)nc3c2nc(-c2ccccc2Cl)n3-c2ccc(Cl)cc2)CC1 [Compound 43, 1-[8-(2-chlorophenyl)-9-(4-chlorophenyl)-2-[2-(hydroxymethyl)imidazol-1-yl]purin-6-yl]-4-methyl-piperidine-4-carboxamide]"
1.82 nM,9.64 nM,"CC1(C(N)=O)CCN(c2nc(-n3cnc(CO)c3)nc3c2nc(-c2ccccc2Cl)n3-c2ccc(Cl)cc2)CC1 [Compound 46, 1-[8-(2-chlorophenyl)-9-(4-chlorophenyl)-2-[4-(hydroxymethyl)imidazol-1-yl]purin-6-yl]-4-methyl-piperidine-4-carboxamide]"
1.87 nM,6.65 nM,"CC1(C(N)=O)CCN(c2nc(-n3cnc(CCO)c3)nc3c2nc(-c2ccccc2Cl)n3-c2ccc(Cl)cc2)CC1 [Compound 47, 1-[8-(2-chlorophenyl)-9-(4-chlorophenyl)-2-[4-(2-hydroxyethyl)imidazol-1-yl]purin-6-yl]-4-methyl-piperidine-4-carboxamide]"
1.2 nM,5.91 nM,"CN(CCO)c1nc(N2CCC(C)(C(N)=O)CC2)c2nc(-c3ccccc3)n(-c3ccc(Cl)cc3)c2n1 [Compound 48, 1-[9-(4-chlorophenyl)-2-[2-hydroxyethyl(methyl)amino]-8-phenyl-purin-6-yl]-4-methyl-piperidine-4-carboxamide]"
2.6 nM,19.3 nM,"CN(CCO)c1nc(N2CCC(C)(C(N)=O)CC2)c2nc(-c3ncccc3Cl)n(-c3ccc(Cl)cc3)c2n1 [Compound 49, 1-[9-(4-chlorophenyl)-8-(3-chloro-2-pyridyl)-2-[2-hydroxyethyl(methyl)amino]purin-6-yl]-4-methyl-piperidine-4-carboxamide]"
8.41 nM,47.8 nM,"CN(CCO)c1nc(N2CCC(C)(C(N)=O)CC2)c2nc(-c3ncccc3F)n(-c3ccc(Cl)cc3)c2n1 [Compound 50, 1-[9-(4-chlorophenyl)-8-(3-fluoro-2-pyridyl)-2-[2-hydroxyethyl(methyl)amino]purin-6-yl]-4-methyl-piperidine-4-carboxamide]"
10.1 nM,64.3 nM,"Cc1cccnc1-c1nc2c(N3CCC(C)(C(N)=O)CC3)nc(N(C)CCO)nc2n1-c1ccc(Cl)cc1 [Compound 51, 1-[9-(4-chlorophenyl)-2-[2-hydroxyethyl(methyl)amino]-8-(3-methyl-2-pyridyl)purin-6-yl]-4-methyl-piperidine-4-carboxamide]"
2.06 nM,29.1 nM,"CN(CCO)c1nc(N2CCC(C)(C(N)=O)CC2)c2nc(-c3ccncc3)n(-c3ccc(Cl)cc3)c2n1 [Compound 52, 1-[9-(4-chlorophenyl)-2-[2-hydroxyethyl(methyl)amino]-8-(4-pyridyl)purin-6-yl]-4-methyl-piperidine-4-carboxamide]"
0.966 nM,13.1 nM,"CC(=O)NCCOc1nc(N2CCC(C(F)(F)F)CC2)c2nc(-c3ccccc3Cl)n(-c3ccc(Cl)cc3)c2n1 [Compound 53, N-[2-[8-(2-chlorophenyl)-9-(4-chlorophenyl)-6-[4-(trifluoromethyl)-1-piperidyl]purin-2-yl]oxyethyl]acetamide]"

Structure (SMILES),IC50 (human CB1 receptor [1]),IC50 (human CB1 receptor [2])
FC(F)(F)C1CCN(c2nc(-c3cc[nH]n3)nc3c2nc(-c2ccccc2Cl)n3-c2ccc(Cl)cc2)CC1 [Compound 39],3.29 nM,16.4 nM
CC1(C(N)=O)CCN(c2nc(-c3cc[nH]n3)nc3c2nc(-c2ccccc2Cl)n3-c2ccc(Cl)cc2)CC1 [Compound 44],2.1 nM,10 nM
CC1(C(N)=O)CCN(c2nc(-c3cnc[nH]3)nc3c2nc(-c2ccccc2Cl)n3-c2ccc(Cl)cc2)CC1 [Compound 45],5.85 nM,39.9 nM
